# Measurements published in US12491181B2, “Nimodipine injection composition and preparation method therefor” (priority 2018, dated 2025).
# Where two headings read alike, the source gives them in different places.
# Experiments:
# [1] = cited from earlier work
# [2] = tested on: Wild-type AB zebrafish larvae; assay: Zebrafish cardiovascular toxicity, administration by dissolving the drug into the water; type: in vivo; set-up: Mortality / Incidence of Atrial Arrest: unit not given here
# [3] = tested on: Wild-type AB zebrafish larvae; assay: Zebrafish cardiovascular toxicity, administration via yolk sac injection; type: in vivo; conditions: yolk sac injection 10 nl
# Procedure: Wild-type AB zebrafish larvae were treated with the drugs to be tested for 24 hours via yolk sac injection administration with a maximum dose volume of 40 nl, and the five initial test concentrations were: 0.1 mg/mL, 1 mg/mL, 10 mg/mL, 100 mg/mL, and 500 mg/mL, respectively. At the same time, a blank control group was set up, with 30 zebrafish treated at each concentration. At the end of drug treatment, the number of zebrafish deaths in each experimental group was counted to provide a basis for the next experimental concentration design.
# 2.2.1 10 nl was administered via yolk sac injection. After treatment for a certain period of time, 10 zebrafish were randomly selected to have their heart rates counted, and their relative heart rates were calculated for comparison.
# 2.2.3 10 zebrafish in each group were randomly selected and observed under the dissecting microscope. […]
# Three formal experimental concentrations were set. After treatment for a certain period of time, 10 zebrafish were randomly selected to have their heart rates counted, and their relative heart rates were calculated for comparison.
# [4] = tested on: SD rats; assay: Passive Anaphylaxis Test in Rats; type: in vivo, rat; set-up: key to Blue Stain Reaction: − indicates negative; + indicates positive; conditions: sensitized SD rats, 100 mg/kg intravenously, positive control
# [5] = tested on: guinea pigs; assay: Active Systemic Anaphylaxis Test in Guinea Pigs; conditions: positive control group, after stimulation
# [6] = Solubility Test for Nimodipine in Oil Phase; type: physicochemical; conditions: normal temperature; for solubility: oil or lipid
# Description: There are different crystalline forms for nimodipine, i.e. α and β. The solubility is different in solvents for different crystalline forms. […] The solubility in an oil phase was not reported yet. […] Furthermore, the solubility of α-type is much greater than that of β-type both in the medium-chain fatty oil and the mixture of soybean oil and medium-chain fatty oil (see the table below). Therefore, formulating α-type nimodipine into a fat emulsion injection may solve the problems of low drug loading efficiency, poor safety, and poor stability occurring in its solution for injection and other fat emulsions for injection developed by the prior art. [table]
# [7] = cited from earlier work; remark: listed apart in the source
# [8] = dissolved into the water, 0.625 μg/ml
# [9] = dissolved into the water, 1.25 μg/ml
# [10] = dissolved into the water, 2.5 μg/ml
# [11] = dissolved into the water, 5.0 μg/ml
compound,measurement,setting,value
"COCCOC(=O)C1=C(C)NC(C)=C(C(=O)OC(C)C)C1c1cccc([N+](=O)[O-])c1 (centres unmarked) [Drug substance, Nimodipine]",oral bioavailability,[1]; healthy subjects,5-13%
same,biological half-life,[1]; in vivo,1.5-2 h
same,oral bioavailability,[1]; patients with subarachnoid hemorrhage,3-28%
same,concentration at which pericardial edema was induced in all zebrafish,[2]; dissolved into the water,5000 ng/mL
same,Incidence of Atrial Arrest,[2]; [8],0
same,Incidence of Pericardial Edema,[2]; [8],10
same,Mortality,[2]; [8],0
same,Relative Heart Rate,[2]; [8],97.0
same,Incidence of Atrial Arrest,[2]; [9],0
same,Incidence of Pericardial Edema,[2]; [9],20
same,Mortality,[2]; [9],0
same,Relative Heart Rate,[2]; [9],94.8
same,Incidence of Atrial Arrest,[2]; [10],10
same,Incidence of Pericardial Edema,[2]; [10],50
same,Mortality,[2]; [10],0
same,Relative Heart Rate,[2]; [10],76.4
same,Incidence of Atrial Arrest,[2]; [11],90
same,Incidence of Pericardial Edema,[2]; [11],100
same,Mortality,[2]; [11],26.7
same,Relative Heart Rate,[2]; [11],58.5
same,incidence of atrial arrest,[2]; [11],90%
same,maximum non-lethal concentration,"[2]; zebrafish, drug dissolved into the water, 24 hours",2.5 µg/mL
same,Actual Heart Rate (± SD),[3]; 0.5 mg/ml,159.0 ± 6.8 beat / min
same,Incidence of Circulatory Insufficiency,[3]; 0.5 mg/ml,0%
same,Incidence of Decreased Blood Flow,[3]; 0.5 mg/ml,0%
same,Incidence of Pericardial Edema,[3]; 0.5 mg/ml,0%
same,Mortality,[3]; 0.5 mg/ml,0%
same,Relative Heart Rate (± SD),[3]; 0.5 mg/ml,99.1 ± 4.2%
same,Actual Heart Rate (± SD),[3]; 1.0 mg/ml,159.6 ± 5.3 beat / min
same,Incidence of Circulatory Insufficiency,[3]; 1.0 mg/ml,0%
same,Incidence of Decreased Blood Flow,[3]; 1.0 mg/ml,10%
same,Incidence of Pericardial Edema,[3]; 1.0 mg/ml,20%
same,Mortality,[3]; 1.0 mg/ml,0%
same,Relative Heart Rate (± SD),[3]; 1.0 mg/ml,99.4 ± 3.3%
same,Actual Heart Rate (± SD),[3]; 2.0 mg/ml,158.4 ± 8.7 beat / min
same,Incidence of Circulatory Insufficiency,[3]; 2.0 mg/ml,10%
same,Incidence of Decreased Blood Flow,[3]; 2.0 mg/ml,10%
same,Mortality,[3]; 2.0 mg/ml,0%
same,Relative Heart Rate (± SD),[3]; 2.0 mg/ml,98.7 ± 5.4%
same,Incidence of Pericardial Edema,[3]; 2.0 mg/ml (67 mg/kg),30%
same,Actual Heart Rate (± SD),[3]; 4.0 mg/ml,166.5 ± 7.2 beat / min
same,Incidence of Circulatory Insufficiency,[3]; 4.0 mg/ml,10%
same,Incidence of Decreased Blood Flow,[3]; 4.0 mg/ml,40%
same,Incidence of Pericardial Edema,[3]; 4.0 mg/ml,60%
same,Mortality,[3]; 4.0 mg/ml,20%
same,Relative Heart Rate (± SD),[3]; 4.0 mg/ml,103.7 ± 4.5%
same,Actual Heart Rate (± SD),[3]; 8.0 mg/ml,167.1 ± 10.2 beat / min
same,Incidence of Circulatory Insufficiency,[3]; 8.0 mg/ml,40%
same,Incidence of Decreased Blood Flow,[3]; 8.0 mg/ml,10%
same,Incidence of Pericardial Edema,[3]; 8.0 mg/ml,60%
same,Mortality,[3]; 8.0 mg/ml,33.3%
same,Relative Heart Rate (± SD),[3]; 8.0 mg/ml,104.1 ± 6.4%
same,Actual Heart Rate (± SD),[3]; 16 mg/ml,166.8 ± 10.3 beat / min
same,Incidence of Circulatory Insufficiency,[3]; 16 mg/ml,40%
same,Incidence of Decreased Blood Flow,[3]; 16 mg/ml,30%
same,Incidence of Pericardial Edema,[3]; 16 mg/ml,70%
same,Mortality,[3]; 16 mg/ml,50%
same,Relative Heart Rate (± SD),[3]; 16 mg/ml,103.9 ± 6.4%
same,Actual Heart Rate (± SD),[3]; 32 mg/ml,144.5 ± 7.4 beat / min
same,Incidence of Circulatory Insufficiency,[3]; 32 mg/ml,100%
same,Incidence of Decreased Blood Flow,[3]; 32 mg/ml,0%
same,Incidence of Pericardial Edema,[3]; 32 mg/ml,100%
same,Mortality,[3]; 32 mg/ml,80%
same,Relative Heart Rate (± SD),[3]; 32 mg/ml,90.0 ± 4.6 %
bovine serum albumin: positive control of the anaphylaxis tests,Blue Stain Reaction,[4],+
same,Blue Stain Reaction (diameter),[4],22.0 ± 4.3 mm
same,intensity of anaphylaxis reaction,[5],++˜++++
same,mortality rate,[5],50%
same,total reaction rate,[5],100%
"COCCOC(=O)C1=C(C)NC(C)=C(C(=O)OC(C)C)C1c1cccc([N+](=O)[O-])c1 (stereo not drawn) [α-type, nimodipine]","Solubility, Medium-chain Oil",[6],23.22 mg/mL
same,"Solubility, Soybean Oil",[6],7.5 mg/mL
same,"Solubility, Soybean Oil:Medium-chain Oil (4:6)",[6],18.1 mg/mL
"COCCOC(=O)C1=C(C)NC(C)=C(C(=O)OC(C)C)C1c1cccc([N+](=O)[O-])c1 (stereo not drawn) [β-type, nimodipine]","Solubility, Water",[7]; normal temperature,0.0036 mg/mL
same,solubility in water,[7]; published literature,0.0036 mg/mL
same,solubility,"[6]; medium-chain oil, read-out: Solubility, Medium-chain Oil",11.8 mg/mL
same,solubility,"[6]; soybean oil, read-out: Solubility, Soybean Oil",6.7 mg/mL
same,solubility,"[6]; soybean oil:medium-chain oil (4:6), read-out: Solubility, Soybean Oil:Medium-chain Oil (4:6)",11 mg/mL
